Target: T1, Human Recombinant Matriptase 2 (Homo sapiens, UniProt Q8IU80)
T1 construct: purchased Enzo Life Sciences (an in-house preparation was also used) ALX-201-752-1
T1 sequence (Q8IU80 1-811): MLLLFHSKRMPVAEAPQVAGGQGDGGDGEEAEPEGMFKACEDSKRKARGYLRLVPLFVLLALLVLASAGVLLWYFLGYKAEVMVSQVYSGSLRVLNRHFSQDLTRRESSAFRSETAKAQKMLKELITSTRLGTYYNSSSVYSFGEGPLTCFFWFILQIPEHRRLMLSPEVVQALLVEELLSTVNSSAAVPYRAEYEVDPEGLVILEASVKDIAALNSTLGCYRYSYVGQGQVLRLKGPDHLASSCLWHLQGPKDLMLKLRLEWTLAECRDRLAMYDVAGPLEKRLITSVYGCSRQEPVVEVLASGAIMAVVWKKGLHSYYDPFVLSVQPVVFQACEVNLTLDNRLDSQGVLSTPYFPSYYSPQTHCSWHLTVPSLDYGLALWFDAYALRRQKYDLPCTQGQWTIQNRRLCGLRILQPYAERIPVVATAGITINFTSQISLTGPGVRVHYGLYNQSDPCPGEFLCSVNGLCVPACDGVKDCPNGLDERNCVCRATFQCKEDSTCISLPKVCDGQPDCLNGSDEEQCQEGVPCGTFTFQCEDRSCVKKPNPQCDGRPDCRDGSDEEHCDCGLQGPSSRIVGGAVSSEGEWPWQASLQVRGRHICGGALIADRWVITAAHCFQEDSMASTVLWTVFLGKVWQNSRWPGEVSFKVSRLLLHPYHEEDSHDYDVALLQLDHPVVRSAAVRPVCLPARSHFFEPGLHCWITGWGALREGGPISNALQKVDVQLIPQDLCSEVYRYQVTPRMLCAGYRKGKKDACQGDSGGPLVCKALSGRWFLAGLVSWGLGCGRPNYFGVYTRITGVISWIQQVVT
Assay: Matriptase 2 fluorescence based inhibition assay, Method B (50 mM TRIS pH 7.5, 150 mM NaCl, 0.01% gelatin)
Format: biochemical
Conditions: 1 uM compound; Assay Used = B
Method: Test compounds were evaluated for their potential to inhibit Human Recombinant Matriptase 2 (in-house and commercial protein from Enzo Life Sciences—cat log -ALX-201-752-1) using fluorescence based assay. The concentration of Recombinant Matriptase 2 and the substrate used in the assay was: 7 nM (commercial) and 15 nM (Inhouse Matriptase 2) and 100 μM (Boc-Gln-Ala-Arg-7-amido-4-methyl coumarin hydrobromide—Cat log: B4153-Sigma and I-1550 from Bachem) respectively. The assay buffer used was 50 mM TRIS pH 7.5, 150 mM NaCl, 0.01% gelatin (G1393 Sigma). The assay was performed using 384 well black flat bottom plate from grenier (Cat log: 781076) at 25° C. The enzyme and compound preincubated for 30 mins, plate was read 60 mins after substrate addition at wavelength Ex: 360/Em:480 nm. The final assay volume of was 20 μl. Stock solution of compounds were initially prepared in DMSO and appropriate dilutions were made for screening and IC50 determination (final DMSO conc in the assay was 1%). All the measurements were carried out using the Spectramax M5, Molecular devices. The compounds were screened at 1 and 10 μM concentration and IC50 was determined for the interested compounds.
To determine IC50 values, dose response curves were generated by plotting percentage inhibition as a function of inhibitor concentration and the data was fitted to sigmoidal non-linear regression equation (variable slope) using Graph Pad prism software V7.

| SMILES | Mar-2 % inhibition at 1 uM |
| --- | --- |
| CC1CCCCN1CCCNC(=O)c1cc2ccc(C(=N)N)cc2n1Cc1cccc2ccccc12 (centres unmarked) [Compound I-479] | C (C represents 50%≤I≤75%) |

Same assay, conditions: 1 uM compound; Assay Used = B (Method B); read-out: Mar-2 % inhibition at 1 uM

| SMILES | inhibition at 1 µM [%] |
| --- | --- |
| N=C(N)c1ccc2cc(C(=O)NCCO)n(Cc3cccc4ccccc34)c2c1 [Compound I-600] | 75 to 100 |
| N=C(N)c1ccc2cc(C(=O)N[C@H]3CC[C@H](N)CC3)n(Cc3cccc4cc(OCCCc5ccccc5)ccc34)c2c1 [Compound I-770] | 50 to 75 |
| N=C(N)c1ccc2cc(C(=O)O)n(Cc3cc(Oc4ccc(N)cc4F)cc4ccccc34)c2c1 [Compound I-639] | 50 to 75 |
| COc1ccc2c(Cn3c(C(=O)N[C@H]4CC[C@H](N)CC4)cc4ccc(/C(N)=N\O)cc43)cccc2c1 [Compound I-795] | 0 to 25 |
| CC(C)Oc1ccc2c(Cn3c(C(=O)O)cc4ccc(C(=N)N)cc43)cccc2c1 [Compound I-793] | 50 to 75 |
| N=C(N)c1ccc2cc(C(=O)O)n(Cc3cc(Oc4ccc(-c5ccccc5)cc4)cc4ccccc34)c2c1 [Compound I-711] | 25 to 50 |
| N=C(N)c1ccc2cc(C(=O)N[C@H]3CC[C@H](N)CC3)n(Cc3cccc4c(OCc5ccccc5)cccc34)c2c1 [Compound I-769] | 75 to 100 |
| CO/N=C(/N)c1ccc2cc(C(=O)O)n(Cc3cccc4ccccc34)c2c1 [Compound I-699, (E)-6-(N′-methoxycarbamimidoyl)-1-(naphthalen-1-ylmethyl)-1H-indole-2-carboxylic Acid] | 0 to 25 |
| N=C(N)c1ccc2cc(C(=O)O)n(Cc3cc(Oc4ccccc4)cc4ccccc34)c2c1 [Compound I-746] | 50 to 75 |
| CC(C)COC(=O)NC(=N)c1ccc2cc(C(=O)O)n(Cc3cc(Oc4ccccc4)cc4ccccc34)c2c1 [Compound I-622] | 0 to 25 |
| CN1CCC(COC(=O)c2cc3ccc(C(=N)N)cc3n2Cc2cccc3ccccc23)CC1 [Compound I-761] | 75 to 100 |
| N=C(N)c1ccc2cc(C(=O)N[C@H]3CC[C@@H](N)CC3)n(Cc3csc4ccccc34)c2n1 [Compound I-722] | 75 to 100 |
| N/C(=N/O)c1ccc2cc(C(=O)O)n(Cc3cc(Oc4ncccn4)cc4ccccc34)c2c1 [Compound I-643, (Z)-6-(N′-hydroxycarbamimidoyl)-1-((3-(pyrimidin-2-yloxy)naphthalen-1-yl)methyl)-1H-indole-2-carboxylic Acid] | 0 to 25 |
| N=C(N)c1ccc2cc(C(=O)N[C@H]3CC[C@H](NC(=O)NC(N)=O)CC3)n(Cc3cccc4ccccc34)c2c1 [Compound I-734] | 50 to 75 |
| CCn1c(C(=O)O)c(Cc2cccc3ccccc23)c2cc(C(=N)N)ccc21 [Compound I-685] | 50 to 75 |
| CC(C)COC(=O)NC(=N)c1ccc2cc(C(=O)O)n(Cc3cccc4ccccc34)c2n1 [Compound I-674] | 25 to 50 |
| N=C(N)c1ccc2cc(C(=O)N[C@H]3CC[C@H](N)CC3)n(Cc3cc(O)cc4ccccc34)c2c1 [Compound I-694] | 75 to 100 |
| Cc1ccc(S(=O)(=O)Oc2cc(Cn3c(C(=O)N[C@H]4CC[C@H](N)CC4)cc4ccc(C(=N)N)cc43)c3ccccc3c2)cc1 [Compound I-614] | 75 to 100 |
| N=C(N)c1ccc2cc(C(=O)OCCN)n(Cc3cc(Oc4ccccc4)cc4ccccc34)c2c1 [Compound I-629] | 75 to 100 |
| NC(=NO)c1ccc2cc(C(=O)O)n(Cc3cccc4ccccc34)c2n1 [Compound I-650] | 0 to 25 |

Same assay, conditions: 1 uM compound; Assay Used = B; read-out: Mar-2 % inhibition at 1 uM

| SMILES | inhibition at 1 µM [%] |
| --- | --- |
| N=C(N)c1ccc2cc(C(=O)NC3CC4CC3CN4)n(Cc3cccc4ccccc34)c2c1 (centres unmarked) [Compound I-480] | 75 to 100 |
| N=C(N)c1ccc2c(C(=O)O)c(C(=O)N[C@H]3CC[C@H](N)CC3)n(Cc3cccc4ccccc34)c2c1 [Compound I-512, 2-(((1r,4r)-4-aminocyclohexyl)carbamoyl)-6-carbamimidoyl-1-(naphthalen-1-ylmethyl)-1H-indole-3-carboxylic Acid] | 50 to 75 |
| N=C(N)c1ccc2cc(C(=O)N3CC4CC3CN4)n(Cc3cccc4ccccc34)c2c1 (centres unmarked) [Compound I-454] | 75 to 100 |
| NC(=O)c1ccc2cc(C(=O)N[C@@H]3CCNC3)n(Cc3cccc4ccccc34)c2c1 [Compound I-456] | 0 to 25 |
| CCOC(=O)NC(=N)c1ccc2cc(C(=O)NC3CCN(C)CC3)n(Cc3cc(Oc4ncccn4)cc4ccccc34)c2c1 [Compound I-549] | 25 to 50 |
| N=C(N)c1ccc2cc(C(=O)NC3CCC(N4CCCC4)CC3)n(Cc3cccc4ccccc34)c2c1 (centres unmarked) [Compound I-462] | 75 to 100 |
| N=C(N)c1ccc2cc(C(=O)N[C@H]3CC[C@H](N)CC3)n(-c3cccc4ccccc34)c2c1 [Compound I-415, N-((1r,4r)-4-aminocyclohexyl)-6-carbamimidoyl-1-(naphthalen-1-yl)-1H-indole-2-carboxamide] | 25 to 50 |
| N=C(N)c1ccc2cc(NC(=O)[C@H]3CC[C@H](N)CC3)n(Cc3cccc4ccccc34)c2c1 [Compound I-529, (1r,4r)-4-amino-N-(6-carbamimidoyl-1-(naphthalen-1-ylmethyl)-1H-indol-2-yl) cyclohexane-1-carboxamide] | 50 to 75 |
| N=C(N)c1ccc2cc(C(N)=O)n(Cc3cccc4ccccc34)c2c1 [Compound I-437] | 75 to 100 |
| NCc1ccc2cc(C(=O)NC3CCNCC3)n(Cc3cccc4ccccc34)c2c1 [Compound I-533] | 25 to 50 |
| N=C(N)c1ccc2cc(-c3nc4c(s3)CCC(N)C4)n(Cc3cccc4ccccc34)c2c1 (centres unmarked) [Compound I-528, 2-(5-amino-4,5,6,7-tetrahydrobenzo[d]thiazol-2-yl)-1-(naphthalen-1-ylmethyl)-1H-indole-6-carboximidamide] | 25 to 50 |
| N=C(N)c1ccc2cc(C(=O)O)n(Cc3cc(S(N)(=O)=O)cc4ccccc34)c2c1 [Compound I-548] | 25 to 50 |
| N=C(N)c1ccc2cc(C(=O)N[C@H]3CC[C@H](N)CC3)n(Cc3ccc(C(N)=O)c4ccccc34)c2c1 [Compound I-509] | 50 to 75 |
| COCc1c(C(=O)N[C@H]2CC[C@H](N)CC2)n(Cc2cccc3ccccc23)c2cc(C(=N)N)ccc12 [Compound I-517, N-((1r,4r)-4-aminocyclohexyl)-6-carbamimidoyl-3-(methoxymethyl)-1-(naphthalen-1-ylmethyl)-1H-indole-2-carboxamide] | 50 to 75 |
| N=C(N)c1ccc2cc(C(=O)N[C@H]3CC[C@@H](N)CC3)n(Cc3cccc4ccccc34)c2c1 [Compound I-439] | 75 to 100 |
| CC(C)(C)OC(=O)NC(=N)c1ccc2cc(C(=O)NCC3CCN(C(=O)OC(C)(C)C)CC3)n(Cc3cccc4ccccc34)c2c1 [Compound I-492, tert-butyl4-((6-(N-(tert-butoxycarbonyl)carbamimidoyl)-1-(naphthalen-1-ylmethyl)-1H-indole-2-carboxamido)methyl)piperidine-1-carboxylate] | 25 to 50 |
| N=C(N)c1ccc2[nH]c(C(=O)O)c(Cc3cc(Oc4ccccc4)cc4ccccc34)c2c1 [Compound I-588] | 25 to 50 |
| COC(=O)NCCOC(=O)c1cc2ccc(C(=N)N)cc2n1Cc1cc(S(=O)(=O)c2ccccc2)cc2ccccc12 [Compound I-556] | 25 to 50 |
| N=C(N)c1ccc2c(C(=O)N[C@H]3CC[C@H](N)CC3)cn(Cc3ccc4ccccc4c3)c2c1 [Compound I-520] | 0 to 25 |
| CN1CCC(NC(=O)c2cc3ccc(CN)cc3n2Cc2cccc3ccccc23)CC1 [Compound I-535] | 25 to 50 |
| Cc1c(C(=O)N[C@H]2CC[C@H](N)CC2)n(Cc2cc(Oc3ncccn3)cc3ccccc23)c2cc(C(=N)N)ccc12 [Compound I-591] | 75 to 100 |
| CC(C)(C)OC(=O)N[C@H]1CC[C@H](NC(=O)c2cc3ccc(C(=N)N)cc3n2CCc2ccc3ccccc3c2)CC1 [Compound I-405] | 25 to 50 |

Same assay, conditions: read-out: Mar-2 % inhibition at 1 uM

| SMILES | inhibition at 1 µM [%] |
| --- | --- |
| CCOC(=O)c1cc2ccc(C(=N)NC(=O)Oc3ccccc3)cc2n1Cc1cc(Oc2ccsc2)cc2ccccc12 [Compound I-579] | 0 to 25 |

Reference: patent publication US12428415B2, “Matriptase 2 inhibitors and uses thereof” (Disc Medicine, Inc., priority 2018, dated 2025)
